The term GI50 denotes the concentration that inhibits growth by half. A higher GI50 goes with less potent growth inhibition.

Like-named read-outs stand apart in the source and are kept apart here. Some results are limits rather than exact numbers.

Experimental findings from patent US10780096B2, “Pyrrolobenzodiazepine-antibody conjugates” (priority 2014, dated 2020) are described below.

One series deals with HuT 78. The series can be described thus: MTS cell proliferation assay, in vitro cytotoxicity. Format: cell-based. The following applies: HuT 78, cutaneous T cell lymphoma, CD25 negative, 96 hours. As for the experimental part: (§1) FIG. 2. In vitro cytotoxicity of ADCT-301 on six lymphoma cell lines as measured by the MTS cell proliferation assay. Cells were incubated with increasing concentrations of ADCT-301 for 96 hours. Data is presented as the mean±SD
(§2) Cell surface protein copy number of CD25 and CD30 was determined on various lymphoma cell lines by flow cytometric Qifikit® assay. Cytotoxicity of ADCT-301 on these cell lines was determined by cell proliferation assay (MTS) to determine whether there is a correlation between CD25 copy number and in vitro cytotoxic potency.

The test system of another series is HDLM-2. The series is described as above. Format: cell-based. The following applies: HDLM-2, Hodgkin's lymphoma, CD25 expressing, 96 hours. As for the experimental part: as §1, §2
The next series has as its system L540. Described as above. Type of series: cell-based. The following applies: L540, Hodgkin's lymphoma, CD25 expressing, 96 hours. As for the experimental part: as §1, §2
A further series has as its system Karpas 299. Described as above. Type of series: cell-based. The following applies: Karpas 299, anaplastic large cell lymphoma, CD25 expressing, 96 hours. As for the experimental part: as §1, §2
The subject of a further series is SU-DHL-1. Described as above. The following applies: SU-DHL-1, anaplastic large cell lymphoma, CD25 expressing, 96 hours. Type of series: cell-based. As for the experimental part:
as §1, §2

Another series relates to Daudi. The description is as above. Format: cell-based. The following applies: Burkitt's lymphoma, CD25 negative, 96 hours. As for the experimental part: as §1, §2
The target of the next series is T1, human CD25 (Homo sapiens, UniProt P01589).
T1 construct: endogenous in cells
T1 sequence (P01589 22-272): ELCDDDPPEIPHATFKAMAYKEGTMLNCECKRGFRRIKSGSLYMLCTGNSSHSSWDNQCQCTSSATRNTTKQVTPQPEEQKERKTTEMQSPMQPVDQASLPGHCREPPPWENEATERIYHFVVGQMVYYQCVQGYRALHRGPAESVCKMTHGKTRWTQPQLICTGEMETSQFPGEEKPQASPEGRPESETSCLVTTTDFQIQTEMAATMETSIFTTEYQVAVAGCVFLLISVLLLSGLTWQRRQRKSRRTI
The series can be described thus: Flow cytometry binding of ADCT-301-FITC on concanavalin-A activated CD25-positive human PBMCs. The following applies: CD25-PE gate. The procedure: FIG. 1. Affinity of ADCT-301 for human CD25 as determined by flow cytometry on concanavalin-A activated CD25-positive human PBMCs. ADCT-301-FITC binding was assessed in a CD25-PE (phycoerythrin) gate across the dilution series by measuring median fluorescent intensity (MFI) in channel FL1H. Isotype, non-targeting-ADC-FITC was used as the non-binding ADC control.
Relative binding affinity of ADCT-301 was measured by flow cytometry on Concanavalin A-activated CD25-positive lymphocytes. Surface plasmon resonance (SPR, Biacore) was used to measure binding affinity and binding kinetics of HuMax®-TAC and ADCT-301 on recombinant sCD25 ectodomain attached to a gold surface.
In general terms: In flow cytometry, cells or beads pass a laser one at a time.

The test system of series [1] is CD25-negative Ramos cells. The following applies: second culture 96 hrs. As for the experimental part:
FIG. 5. […] Data is presented as the mean±SD.
In these experiments, an first 48 hr culture of either (A) CD25-negative cells Ramos cells, or (B) CD25-positive Karpas 299, with ADCT-301 was performed. When this first culture was complete, the culture was centrifuged and 50 μl of the supernatant media transferred to 50 μl of a freshly prepared culture of either (A) CD25-negative cells Ramos cells, or (B) CD25-positive Karpas 299. This second culture was performed for 96 hrs, then cytotoxicity assessed by the MTS assay.

For series [2], the system named is CD25-negative Burkitt lymphoma Ramos cells. In words: Conditioned media transfer from SuDHL-1 culture to Ramos cells, MTS assay. Type of series: cell-based, human. The following applies: media conditioned by 48 hr culture of CD25-positive SuDHL-1 cells; second culture 96 hrs. The procedure: FIG. 6. Comparison of CD25−ve bystander cytotoxicity observed with cleavable vs. non-cleavable linkers by in vitro conditioned media transfer. […] The error bars indicate % cell viability±SD of 3 independent repeats
The effect of linker cleavablility was investigated in conditioned media transfer experiments. In these experiments, a first 48 hr culture CD25-positive SuDHL-1 cells was performed with either (1) of ADCT-301 (cleavable linker), or (2)NC-1 (composed of the recombinant human IgG1, HuMax®-TAC against human CD25 attached to a pyrrolobenzodiazepine PBD warhead with non-cleavable linker according to the alternative aspect of the disclosure).
For orientation: Formazan colour is commonly taken as a measure of viable cells.

Series [3] deals with CD25-positive SuDHL-1 cells. The series can be described thus: Cytotoxicity on CD25-positive SuDHL-1 cells, cleavable vs non-cleavable linker. Type of series: cell-based. The following applies: direct treatment of CD25-positive SuDHL-1 cells.
Series [4] concerns CD25-negative Ramos cells. The series can be described thus: Bystander effect in co-culture of Karpas 299 and Ramos cells, flow cytometry. Format: cell-based, human. The following applies: 96 hour exposure, co-culture with CD25-positive Karpas 299, compared to Ramos cultured alone. As for the experimental part: FIG. 3. […] The histogram depicts the percentage of viable populations of cells as measured by flow cytometry.
Readout was Karpas 299 and Ramos cell numbers and the viability of these cells both of which were determined by flow cytometry.
Ramos cells are human B lymphocytes of Burkitt's lymphoma.

Consider “ADCT-301: recombinant human IgG1, HuMax-TAC against human CD25 attached to a pyrrolobenzodiazepine PBD warhead, cleavable linker; drug-antibody ratio 2.3±0.3; HuMax-TAC-E of WO2014/57119”, for which the GI50 is above 10 nM in the series with HuT 78; 0.0511 nM in the series on HDLM-2; 0.0216 nM in the series with L540; 0.0365 nM in the series on Karpas 299; 0.0165 nM in the series with SU-DHL-1; above 10 nM in the series with Daudi. Besides, the “Mean GI50” value with HuT 78 was >>150 ng/ml; in the series on HDLM-2, 7.67 ng/mL; with L540 it was 3.25 ng/mL; with Karpas 299, 5.47 ng/mL; in the series with SU-DHL-1 it was 2.48 ng/mL; in the series on Daudi, >>150 ng/ml. Also, the “EC50 (affinity for human CD25, median fluorescent intensity)” value with human CD25 is given as “≈ 0.03 μg/ml”. The entries for the “Cytotoxicity to Ramos cells of conditioned media” value in series [1] (media conditioned by 48 hr culture of CD25+ve Karpas299 cells), in series [1] (media conditioned by 48 hr culture of CD25-ve Ramos cells) and in series [2] were “potent cytotoxicity”, “does not lead to any observable increase in cytoxicity” and “shows cytotoxicity of CD25-negative Burkitt lymphoma Ramos cells”, respectively. For the same substance, the “Sensitivity of SuDHL-1 cells to treatment” value in series [3] is “equally sensitive”. The “Bystander killing of Ramos cells in co-culture” value in [4] is reported as “specific bystander killing of Ramos cells”.
